Data taken from a melting point compilation (Tetko et al.; mined from patent text by program, amines drawn as free bases though some values may be those of a salt).

Compound | melting point
CCCc1c(C(=O)C(C)C)c2ccc(CC(N)=O)cc2n1Cc1ccccc1Cl | 146 to 148 °C
CC(=O)CN1CCc2c(c(=O)oc3cc(C)c(Cl)cc23)C1 | 172 to 175 °C
CCN(C(=O)OC(C)(C)C)C1CC=C(c2c[nH]c3ccc([N+](=O)[O-])cc23)CC1 (centres undefined) | 217 to 219 °C
Cc1cc(N(C)C)nc(N)n1 | 172 to 174 °C
Oc1nc(-c2ccc(Cl)cc2)nc2c1CCC2 | 282 °C
Cn1cc([N+](=O)[O-])nc1C(=O)Cl | 126 to 128 °C
CC(C)C(=O)N[C@@H](CS)C(=O)NCCSC(=O)c1ccccc1 | 127 to 130 °C
CCCCCCC(O)CC(=O)O (centres undefined) | 49.3 to 50 °C
CCCCCCCCCCc1csc2c1sc1c3scc(CCCCCCCCCC)c3sc21 | 111 to 113 °C
Cn1c2ccccc2c2oc(C#N)cc(=O)c21 | 190 to 192 °C
CCOC(=O)c1cn(-c2ccc(OC)cc2F)c2cc(F)c(F)cc2c1=O | 170 to 171 °C
CSC(=Nc1c(C(C)C)cc(Oc2ccc(Cl)cc2)nc1C(C)C)NC(C)(C)C | 95 to 100 °C
N=C(Nc1ccccc1-c1ccc(F)cc1)N1CCC(O)CC1 | 132 to 133 °C
CCCCCCCNC(=O)Nc1ccccc1C(=O)NC1CCN(C(=O)Oc2ccccc2)CC1 | 142 to 144 °C
CSC1C(O)C(CO)OC1n1ccc(N)nc1=O (centres undefined) | 201 °C
CCOC(=O)c1cc(-n2c(=O)[nH]c3c(c2=O)CSC3)ccc1Cl | 194 to 196 °C
N#Cc1cnc2c(NC(=O)c3c(Cl)cccc3Cl)cccc2c1CO | 249 to 250 °C
O=C(Nc1cccc(C(F)(F)F)c1)C12CC3CC(CC(C3)C1)C2 | 171 to 174 °C
CC(C)(CCCCOc1ccc(NC(=O)CCCn2ccnc2)cc1)C(=O)O | 150 °C
Cc1cccc(C)c1NCCN(C)CC(O)COc1cccc2[nH]ncc12 (centres undefined) | 120 to 121 °C
Cc1cnc(CN2CCNC2=C[N+](=O)[O-])cn1 | 163 to 166 °C
O=C(O)c1cnn2c(C(F)(F)F)cc(-c3ccc(C(F)(F)F)c(OCC(F)(F)F)c3)nc12 | 264 °C

Compound | melting point
COC(=O)C(C)(C)Cc1cc2ccc(O)cc2n1C | 125 to 126 °C
Nc1nc2ccccc2c2c1ncn2CCCCNC(=O)N1CCOCC1 | 177 to 180 °C
CCC1(O)CC(=O)OCc2c1cc1n(c2=O)Cc2c-1nc1cc(F)ccc1c2-c1ccccc1 (centres undefined) | > 250 °C
Cn1nc(C(F)(F)F)c(C(=O)CC#N)c1Cl | 103 to 105 °C
CC(C)(C)NS(=O)(=O)c1ccccc1CCCl | 64 to 65 °C
C=C(CC)C(=O)c1ccc(OC(C)(C)C(=O)O)c(Cl)c1Cl | 88 to 89 °C
N#CCCN1C(=O)C2(COc3cc4c(cc32)OCO4)c2ccccc21 (centres undefined) | 200 to 202 °C
CCOC(=O)C1=Cc2cc(-c3ccc(C)cc3)ccc2SC1 | 87 °C
Cc1cc(CO)ccn1 | 58 to 59 °C
CCCCCCCCCCCCCCCCNc1ccc(C(=O)NS(=O)(=O)c2ccc(C)cc2)cc1 | 123 to 124 °C
CCOC(=O)c1ncn2c1Cn1ccnc1-c1sccc1-2 | 203 to 204 °C
COc1ccc(C2NC(=O)C2OC(C)=O)cc1 (centres undefined) | 110 to 111 °C
CCOC(=O)Cn1c(C(=O)OCC)c(O)c(O)c1C(=O)OCC | 121 to 122 °C
O=C(Nc1c([N+](=O)[O-])cnn1-c1c(Cl)cc(C(F)(F)F)cc1Cl)C1CCCO1 (centres undefined) | 169 to 172 °C
CCCOc1ccc(F)cc1C(=O)O | 76 to 78 °C
Cc1cc(NC(=O)Cc2ccsc2)nc(C)c1Br | 211 °C
CC(c1ccc(-c2ccccc2)o1)N(O)C(N)=O (centres undefined) | 133 to 136 °C
CC(C)OC(=O)c1cc(Cl)c(Cl)c(Cl)n1 | 105 to 106 °C
CNc1nc(C2C(=O)Nc3ccccc32)c2cn(C3CCCC3)nc2n1 (centres undefined) | > 300 °C
NS(=O)(=O)CS(=O)(=O)c1ccc(S(=O)(=O)CCCO)cc1 | 200 °C
Cn1ncc(C(=O)N2CCC2)c1C(=O)Nc1ccc2nc(-c3ccccc3)nn2c1 | 235 to 236 °C
CCCCCC1CC=C(c2ccc(Br)cc2)CC1 (centres undefined) | 67 to 68 °C

Compound | melting point
COC(C)(C(=S)N(C)C)c1ccccn1 (centres undefined) | 67.8 to 70 °C
Nc1ccc(C=CC=CC=CC=Cc2ccc(N)cc2)cc1 | 262 to 264 °C
COc1nc2ccccc2nc1NC(=S)N1CCN(c2ccc(C(C)=O)cc2)CC1 | 235 to 237 °C
CN(C)C(C)(CO)c1cccs1 (centres undefined) | 68 to 70 °C
C[C@H](Nc1nc(NC=O)nc([C@@H](C)F)n1)C1CCCCC1 | 127 °C
CC(=O)OCC1OC(n2ccc3c(C)cccc32)C(OC(C)=O)C(OC(C)=O)C1OC(C)=O (centres undefined) | 156 to 157 °C
O=CNCC1CC2C3CC4C2C4C13 (centres undefined) | 225 to 226 °C
C=CCC1COC(CC)(CC(=O)O)c2[nH]c3c(CC)cccc3c21 (centres undefined) | 96 to 97 °C
CCC(=O)NC1Cc2cccc3ccc(OC)c(c23)C1 (centres undefined) | 184 to 186 °C
Cc1oc(-c2ccccc2)nc1CCc1noc(CCl)n1 | 71 to 72 °C
CC1CC2(OC3CC4C5CCC6CC(O)CCC6(C)C5C(=O)CC4(C)C3C2(C)O)OC1(C)C (centres undefined) | 206 to 208 °C
COc1cccc2c(=O)[nH]c(-c3cc(C)c(OCCN4CCCC4)c(C)c3)nc12 | 231 to 232 °C
CS(=O)(=O)c1ccc(SC2SCC(O)C(O)C2O)cc1 (centres undefined) | 169 to 172 °C
CC(=O)OC1CSC(Oc2cncc(-c3ccc(F)nc3)c2)C(OC(C)=O)C1OC(C)=O (centres undefined) | 167 to 169 °C
Nc1cc(Cl)nc(SC/C=C/C(=O)N2CCCCC2)n1 | 159 to 163 °C
C=CCOc1ccccc1C1C(C(=O)OCC)=C(C)NC(C=O)=C1C(=O)OCC (centres undefined) | 129 to 131 °C
Nc1nnc(OCc2ccccc2)s1 | 173 to 175 °C
Cn1c(C#N)ccc1-c1ccc2c(c1)C(C)(C)OC(=S)N2 | 228 to 229 °C
O=[N+]([O-])c1cc(C(F)(F)F)cc2nc(C(F)(F)F)[nH]c12 | 95 to 97 °C
NC(=O)Cc1nc(C(=O)c2ccccc2)no1 | 156 to 158 °C

The remaining lines, values ahead:

melting point | Compound
203 to 204 °C | CCOc1cc2cc(CO)cc(-c3ccnc(-n4nc(-c5ccccc5)c5ccccc5c4=O)c3)c2cc1OCC
49 to 51 °C | COC(=O)C(=O)c1ccc(OCCSc2ccccc2)cc1
76 to 79 °C | CC(Cc1ccc(OCCNC(=O)c2ccc(-c3ccccn3)cc2)cc1)(Oc1ccccc1)C(=O)O (centres undefined)
132 to 134 °C | N#CC=Cc1ccc(NC(=O)C=CC=C(Nc2cc(Cl)cc(Cl)c2I)C(=O)OCc2ccccc2)cc1
160 to 163 °C | CC1=NN(c2ccc(C(=O)O)cc2)C(=O)C1Cc1ccc(-c2cc(C)c(C)cc2[N+](=O)[O-])o1 (centres undefined)
143 to 145 °C | Clc1cccc(Oc2nnc(Cc3ccncc3)c3ccccc23)c1
125 °C | O=CNCC1CCN(C(c2ccccc2)c2ccccc2)CC1
233 to 235 °C | O=C(O)[C@@H]1Cc2ncn(Cc3ccccc3)c2CN1C(=O)c1ccccc1
157 to 158 °C | CCOc1ccc(C(=O)N2c3ccccc3C(N3CCCc4ccccc43)CC2C)cc1OCC (centres undefined)
166 to 168 °C | c1ccc(Oc2nc(Oc3ccccc3)nc(N3CCOCC3)n2)cc1
157 to 158 °C | O=C(O)C(Cc1cnc2cc(OCc3ccc(Cl)cc3)ccc2c1)Sc1ccccc1 (centres undefined)
231 °C | CCOc1ccc2c(c1)n(C13CC4CC(CC(C4)C1)C3)c(=O)n2S(=O)(=O)c1ccc([N+](=O)[O-])cc1OC
277 to 279 °C | Cc1ccc(NC(=O)CN2C(=O)C3(COc4cc5c(cc43)CCO5)c3ccccc32)c(C)c1 (centres undefined)
81 to 82 °C | COc1ccc(-c2sc(-c3ccccc3)cc2OC(C)=O)cc1
182 °C | CCOC(=O)C(=NOC(C)C)c1csc(NC(c2ccccc2)(c2ccccc2)c2ccccc2)n1
244 °C | Cc1nc(-c2ccc(C(F)(F)F)cc2)[nH]c1CN1CCN(C(c2ccccc2)c2ccccc2)CC1
191 to 192 °C | CC(=O)OC1OCC[C@@H]1NC(=O)CCC(=O)Nc1ccc(Nc2ccccc2)cc1 (some centres undefined)
74 to 81 °C | CC(COc1ccc(CC2SC(=O)N(C(c3ccccc3)(c3ccccc3)c3ccccc3)C2=O)cc1)N1CC(COc2cccc(Cl)c2)OC1=O (centres undefined)

melting point | Compound
181 to 183 °C | CCCCc1nc(Cl)c(C=O)n1Cc1ccc(-c2ccccc2-c2nc(=O)o[nH]2)cc1
180 to 182 °C | COC(=O)c1cc(Oc2ccc([N+](=O)[O-])cc2)cc(Oc2ccc([N+](=O)[O-])cc2)c1
260 to 262 °C | CC(C)C(=O)OC1c2nccnc2C(=O)N1c1ccc2ccc(Cl)nc2n1 (centres undefined)
150 to 160 °C | COc1ccc(-c2nc3cc(Cl)c(Cl)cc3n2C(=O)OCc2ccccc2)cc1N
91 °C | N#Cc1nn(Cc2ccccc2)c2ccccc12
180 °C | Fc1cccc(COc2ccc(Nc3ncnc4sc(C#Cc5ccccn5)cc34)cc2Cl)c1
94 to 95 °C | CC(C)(OC(=O)CCc1nc(-c2ccc(Cl)cc2)co1)c1ccccc1
240 to 242 °C | O=C1c2ccc([N+](=O)[O-])cc2C(=O)N1C1CCN(Cc2ccccc2)CC1
122 to 123 °C | CN(C)CCNC(=O)c1cccc(-c2ccc3c(c2)N(Cc2ccc(Cl)cc2Cl)CC3)c1
174 °C | COc1ccc2c(c1)OC(C)(C)C(NC(=O)c1cc(Cl)ccc1OC)C2=O (centres undefined)
263 to 264 °C | c1ccc2c(c1)CCc1ccccc1C2Nc1ccncc1
115 to 125 °C | CC(COc1ccc(CC2SC(=O)NC2=O)cc1)NCC(O)CN(C)c1ccccc1 (centres undefined)
50 to 53 °C | Cn1nc(C(F)(F)F)n(-c2ccc(C#Cc3ccccc3)cc2Cl)c1=S
230 to 232 °C | CC(C)(C)OC(=O)N1CCc2cc(NC(=O)NCc3ccc4c(c3)CN(C3CCC(=O)NC3=O)C4=O)ccc2C1 (centres undefined)
90 to 97 °C | CC(C)c1c(C(=O)Nc2ccccc2)c(-c2ccccc2)c(-c2ccc(F)cc2)n1CC[C@H]1C[C@H](O)CC(=O)O1 (relative stereo)
89 to 91 °C | Cc1cc(C)cc(C(OC(C)C(c2ccccc2)c2ccccc2)N(C)C(=O)c2ccccc2)c1 (centres undefined)
125 to 126 °C | O=C1C(=O)c2ccccc2C2=C1SCC1(CCN(C(=O)C(Cl)c3ccccc3)CC1)O2 (centres undefined)
